From patent US20160318856A1, “Substituted Urea eIF2alpha Kinase Activators” (THE BRIGHAM AND WOMEN'S HOSPITAL, INC., priority 2013, published 2016)
Read-outs that look alike come from different tables or passages of the source.

Columns and labels:
Panc-1 = test: cell proliferation (SRB) assay, Panc-1; format: cell-based; conditions: Homo sapiens, Table 7
Description: (§1) Cells were seeded in 96-well plates and maintained for 5 days in the presence of 0.5 to 20 μM of individual compound, and cell proliferation was measured by the sulforhodamine B (SRB) assay as described previously (see, for example, Palakurthi, S. S. et al. Cancer Research 2000, 60(11), 2919-2925). Briefly, at the end of a 5-day treatment, cells were fixed in 10% cold trichloroacetic acid. Cell number was estimated by measuring the remaining bound dye of sulforhodamine B after washing. The percentage of growth was calculated by using the equation: 100×[(T−T0)/(C−T0)], where T and C represent the absorbance in treated and control cultures at Day 5, and T0 at time zero, respectively. If T is less than T0, cell death has occurred and can be calculated from 100×[(T−T0)/T0].
The compounds shown in Table 7 were evaluated using for activation of HRI using the dual luciferase surrogate eIF2α phosphorylation assay (see, for example, Chen, T. et al. Nature Chem Biol 2011, 7, 610-616) and for inhibition of cell proliferation using the SRB assay (see, for example, Palakurthi, S. S. et al. Cancer Res 2000, 60, 2919-2925) as described above.

[1] = system: CRL-2813 human melanoma cancer cells; test: cell proliferation (SRB) assay, CRL-2813; format: cell-based
Description: as §1

[2] = system: eIF2α phosphorylation (eIF2•GTP•Met-tRNAi ternary complex; HRI activation); test: surrogate dual luciferase eIF2α phosphorylation (ternary complex) assay; format: cell-based, human; conditions: for maximal fold induction: Homo sapiens; for C3X: Calculated concentration of compound that will cause three-fold increase in the surrogate eIF2α phosphorylation assay: Table 7
From the text: The dual luciferase expression vector and other plasmids used for these studies were previously described (see, for example, Ziegeler, G. et al. Journal of Biological Chemistry 2010, 285(20), 15408-19). The ternary complex assay, surrogate of eIF2α phosphorylation, has been described elsewhere (see, for example, Chen, T. et al. Nature Chemical Biology 2011, 7(9), 610-6). Briefly, the pBISA vector, which contains seven copies of the tetracycline-regulated transactivator response element (TRE), is flanked on both sides by minimal human cytomegalovirus (CMV) minimal promoters allowing bi-directional transcription and two MCSs (multiple cloning sites). Firefly and renilla luciferases were subcloned into MCS-I and MCS-II, respectively. This plasmid, designated pBISA-DL, transcribes two mRNAs that contain the 90 nucleotide plasmid derived 5′UTR (same sequence in both mRNAs), and the ORF encoding either firefly or renilla luciferase followed by a polyadenylation sequence. This plasmid was further modified by inserting the 5′UTR of ATF-4 mRNA into MCS-I in front of the firefly luciferase mRNA. Transcription from this unit generates an mRNA that contains the firefly luciferase ORF preceded by a 5′UTR composed of 90 nucleotides derived from the plasmid and 267 nucleotides derived from the 5′UTR of ATF-4 mRNA. Transcription from the other unit generates an mRNA that contains the renilla luciferase ORF proceeded only by the 90-nucleotide plasmid-derived sequence in the 5′UTR (pBISA-DL (ATF-4)) (see, for example, Chen, T. et al. Nature Chemical Biology 2011, 7(9), 610-6).
Cells expressing firefly and renilla luciferases were assayed with a dual glow luciferase assay kit, per manufacturer's instruction (Promega Inc., Madison, Wis.). The data calculations were carried out as the ratio of firefly to renilla luciferase signal.
A library of 1900 urea compounds was screened in the surrogate dual luciferase eIF2α phosphorylation (ternary complex) assay. This library was originally assembled and screened for inhibition of sEH by Hammock's group at UC-Davis (see, for example, Chen, T. et al. Nature Chem Biol 2011, 7, 610-616; Ziegeler, G et al. J Biol Chem 2010, 285, 15408-15419). We developed this assay in order to identify compounds that activate HRI, taking advantage of the fact that activated HRI phosphorylates eIF2α thereby reducing the amount of the eIF2•GTP•Met-tRNAi ternary complex that results in inhibition of translation of many mRNAs but paradoxically increases translation of some mRNAs that contain multiple upstream ORF (uORF) in their 5′ untranslated regions (UTRs). In our assay, firefly (F) luciferase mRNA is fused to 5′UTR of activating transcription factor 4 (ATF-4) mRNA that has multiple uORFs while renilla (R) luciferase mRNA is fused to a 5′UTR lacking any uORFs. Compounds that reduce the amount of the ternary complex, such as those activating HRI, would increase F luciferase expression while decreasing the R luciferase expression, resulting in an increased F/R luciferase ratio. To calculate the activity scores, the F/R ratios for every compound-treated wells were normalized to vehicle-treated (DMSO) wells that was arbitrarily set at 1 (F/R=1).

[3] = Homo sapiens, CRL2813, SRB assay, Table 7, read-out: IC50 CRL-2813
[4] = DMSO = 1, maximum tested concentration 20 μM, read-out: Emax: Maximum activity of compound expressed as fold over vehicle
[5] = cell proliferation assay (SRB, 5 days), cell line not named in Table 1, values equal CRL-2813 values of Tables 5/8, read-out: IC50
[6] = ternary complex assay, F/R normalized to vehicle (DMSO = 1)
[7] = cell proliferation assay, Table 2, cell line not named, read-out: IC50

SMILES: N#Cc1ccc(NC(=O)N[C@H]2CC[C@H](Oc3ccc(C#N)cc3)CC2)cc1
- IC50 (Panc-1): 10 µM
- IC50 [1, 3]: 10 µM

SMILES: N#Cc1ccc(NC(=O)N[C@H]2CC[C@H](Oc3ccc(C(F)(F)F)cc3)CC2)cc1
- IC50 (Panc-1): 2 µM
- IC50 [1, 3]: 0.9 µM
- maximal fold induction [2, 4]: 9
- C3X: Calculated concentration of compound that will cause three-fold increase in the surrogate eIF2α phosphorylation assay [2]: 0.6 µM

SMILES: O=C(Nc1cccc(OC(F)(F)F)c1)N[C@H]1CC[C@H](Oc2ccc(OC(F)(F)F)cc2)CC1
- IC50 (Panc-1): 3 µM
- IC50 [1, 3]: 1.2 µM
- maximal fold induction [2, 4]: 14
- C3X: Calculated concentration of compound that will cause three-fold increase in the surrogate eIF2α phosphorylation assay [2]: 1.3 µM

SMILES: O=C(Nc1cc(C(F)(F)F)cc(C(F)(F)F)c1)N[C@H]1CC[C@H](Oc2ccc(C(F)(F)F)cc2)CC1
- IC50 (Panc-1): 0.7 µM
- IC50 [1, 3]: 0.15 µM
- maximal fold induction [2, 4]: 38
- C3X: Calculated concentration of compound that will cause three-fold increase in the surrogate eIF2α phosphorylation assay [2]: 0.15 µM

SMILES: O=C(Nc1cccc(C(F)(F)F)c1)N[C@H]1CC[C@H](Oc2ccc(C(F)(F)F)cn2)CC1
- IC50 (Panc-1): 2.8 µM
- IC50 [1, 3]: 1.5 µM
- maximal fold induction [2, 4]: 6
- C3X: Calculated concentration of compound that will cause three-fold increase in the surrogate eIF2α phosphorylation assay [2]: 3.5 µM

SMILES: O=C(Nc1cccc(C(F)(F)F)c1)NC1CCC(O)CC1 (stereo not shown) [III-2, 1-(4-Hydroxycyclohexyl)-3-(3-(trifluoromethyl)phenyl)urea]
- IC50 ([1]; Homo sapiens, CRL2813, cell proliferation assay, Table 4, cell line not named, read-out: IC50): > 20 µM
- maximal fold induction ([2]; surrogate eIF2α phosphorylation assay, Table 4, read-out: Emax (F/R)): 0.89

SMILES: O=C(Nc1ccccc1I)NC1CCC(Oc2ccc(F)cc2)CC1 (stereo not shown) [Compound I-4o]
- IC50 [1, 5]: > 20 µM
- Emax (F/R) [2, 6]: 3.25 F/R

SMILES: COc1cccc(NC(=O)NC2CCC(Oc3ccc(F)cc3)CC2)c1 (stereo not shown) [Compound I-8m]
- IC50 [1, 5]: 14 ± 1.3 µM
- Emax (F/R) [2, 6]: 3.81 F/R

SMILES: CSc1ccc(NC(=O)NC2CCC(Oc3ccc(F)cc3)CC2)cc1 (stereo not shown) [Compound I-10p]
- IC50 [1, 5]: > 20 µM
- Emax (F/R) [2, 6]: 1.07 F/R

SMILES: O=C(Nc1ccc(I)cc1)NC1CCC(Oc2ccc(F)cc2)CC1 (stereo not shown) [Compound I-4p]
- IC50 [1, 5]: 10.2 ± 1.5 µM
- Emax (F/R) [2, 6]: 3.77 F/R

SMILES: O=C(Nc1ccccc1C(F)(F)F)NC1CCC(Oc2ccc(F)cc2)CC1 (stereo not shown) [Compound I-5o]
- IC50 [1, 5]: > 20 µM
- Emax (F/R) [2, 6]: 1.56 F/R

SMILES: O=C(Nc1cccc([N+](=O)[O-])c1)N[C@H]1CC[C@H](OCc2c(F)cccc2F)CC1 [II-9m]
- IC50 [1, 7]: > 20 µM
- Emax (F/R) ([2]; 7.5 μM compound): 0.96 F/R
- Emax (F/R) ([2]; 15 μM compound): 0.76 F/R
- Emax (F/R) ([2]; 30 μM compound): 0.94 F/R

SMILES: O=C(Nc1cccc(F)c1)NC1CCC(Oc2ccc(F)cc2)CC1 (stereo not shown) [Compound I-1m]
- IC50 [1, 5]: 8.3 ± 0.9 µM
- Emax (F/R) [2, 6]: 6.54 F/R

SMILES: Cc1cccc(NC(=O)N[C@H]2CC[C@H](OCc3c(F)cccc3F)CC2)c1 [II-7m]
- IC50 [1, 7]: > 20 µM
- Emax (F/R) ([2]; 7.5 μM compound): 0.82 F/R
- Emax (F/R) ([2]; 15 μM compound): 0.89 F/R
- Emax (F/R) ([2]; 30 μM compound): 0.81 F/R

SMILES: O=C(Nc1ccc(Cl)cc1)N[C@H]1CC[C@H](OCc2c(F)cccc2F)CC1 [II-2p]
- IC50 [1, 7]: > 20 µM
- Emax (F/R) ([2]; 7.5 μM compound): 0.95 F/R
- Emax (F/R) ([2]; 15 μM compound): 0.96 F/R
- Emax (F/R) ([2]; 30 μM compound): 0.74 F/R

SMILES: O=C(Nc1ccccc1[N+](=O)[O-])NC1CCC(Oc2ccc(F)cc2)CC1 (stereo not shown) [Compound I-9o]
- IC50 [1, 5]: 3.5 ± 0.3 µM
- Emax (F/R) [2, 6]: 2.23 F/R

SMILES: O=C(Nc1cccc(C(=O)O)c1)NC1CCC(Oc2ccc(F)cc2)CC1 (stereo not shown) [Compound I-12m]
- IC50 [1, 5]: > 20 µM
- Emax (F/R) [2, 6]: 0.88 F/R

SMILES: O=C(Nc1ccccc1)NC1CCC(Oc2ccc(F)cc2)CC1 (stereo not shown) [Compound I-13]
- IC50 [1, 5]: 20 ± 2 µM
- Emax (F/R) [2, 6]: 1.65 F/R

SMILES: O=C(Nc1ccc(Br)cc1)N[C@H]1CC[C@H](OCc2c(F)cccc2F)CC1 [II-3p]
- IC50 [1, 7]: > 20 µM
- Emax (F/R) ([2]; 7.5 μM compound): 0.76 F/R
- Emax (F/R) ([2]; 15 μM compound): 0.85 F/R
- Emax (F/R) ([2]; 30 μM compound): 0.73 F/R

SMILES: COC(=O)c1ccccc1NC(=O)NC1CCC(Oc2ccc(F)cc2)CC1 (stereo not shown) [Compound I-11o, methyl 2-(3-(4-(4-fluorophenoxy)cyclohexyl)ureido)benzoate]
- IC50 ([1]; Homo sapiens, CRL2813, 120 h, cell proliferation assay (SRB, 5 days), cell line not named in Table 1, values equal CRL-2813 values of Tables 5/8, read-out: IC50): 14.5 ± 1.6 µM
- maximal fold induction ([2]; ternary complex assay, F/R normalized to vehicle (DMSO = 1), read-out: Emax (F/R)): 3.79

SMILES: O=C(Nc1cccc(Cl)c1)NC1CCC(Oc2ccc(F)cc2)CC1 (stereo not shown) [Compound I-2m]
- IC50 [1, 5]: 5.9 ± 0.6 µM
- Emax (F/R) [2, 6]: 8.76 F/R

SMILES: CSc1ccc(NC(=O)N[C@H]2CC[C@H](OCc3c(F)cccc3F)CC2)cc1 [II-10p]
- IC50 [1, 7]: > 20 µM
- Emax (F/R) ([2]; 7.5 μM compound): 0.94 F/R
- Emax (F/R) ([2]; 15 μM compound): 0.98 F/R
- Emax (F/R) ([2]; 30 μM compound): 1.07 F/R

SMILES: N#Cc1ccc(O[C@H]2CC[C@H](NC(=O)Nc3cccc(C#N)c3)CC2)cc1
- IC50 (Panc-1): > 10 µM
- IC50 [1, 3]: 7 µM

SMILES: CSc1cccc(NC(=O)NC2CCC(Oc3ccc(F)cc3)CC2)c1 (stereo not shown) [Compound I-10m]
- IC50 [1, 5]: 11.1 ± 1.1 µM
- Emax (F/R) [2, 6]: 6.67 F/R

SMILES: COc1cccc(NC(=O)N[C@H]2CC[C@H](OCc3c(F)cccc3F)CC2)c1 [II-8m]
- IC50 [1, 7]: > 20 µM
- Emax (F/R) ([2]; 7.5 μM compound): 0.84 F/R
- Emax (F/R) ([2]; 15 μM compound): 0.97 F/R
- Emax (F/R) ([2]; 30 μM compound): 0.74 F/R

SMILES: O=C(Nc1ccc([N+](=O)[O-])cc1)NC1CCC(Oc2ccc(F)cc2)CC1 (stereo not shown) [Compound I-9p]
- IC50 [1, 5]: 2.3 ± 0.1 µM
- Emax (F/R) [2, 6]: 9.00 F/R

SMILES: Cc1ccccc1NC(=O)NC1CCC(Oc2ccc(F)cc2)CC1 (stereo not shown) [Compound I-7o]
- IC50 [1, 5]: > 20 µM
- Emax (F/R) [2, 6]: 0.98 F/R

SMILES: COc1ccc(NC(=O)NC2CCC(Oc3ccc(F)cc3)CC2)cc1 (stereo not shown) [Compound I-8p]
- IC50 [1, 5]: > 20 µM
- Emax (F/R) [2, 6]: 0.83 F/R

SMILES: O=C(Nc1ccccc1OC(F)(F)F)NC1CCC(Oc2ccc(F)cc2)CC1 (stereo not shown) [Compound I-6o]
- IC50 [1, 5]: > 20 µM
- Emax (F/R) [2, 6]: 1.41 F/R

SMILES: O=C(Nc1ccccc1I)N[C@H]1CC[C@H](OCc2c(F)cccc2F)CC1 [II-4o]
- IC50 [1, 7]: > 20 µM
- Emax (F/R) ([2]; 7.5 μM compound): 0.81 F/R
- Emax (F/R) ([2]; 15 μM compound): 0.74 F/R
- Emax (F/R) ([2]; 30 μM compound): 0.81 F/R
